We go through 4 compounds from US11712432B2, “Method of treating cancer with an elevated glycogen content” (University of Kentucky Research Foundation, priority 2018, dated 2023).

Entries after “also recorded” stand apart in the source; their conditions may differ. Read-outs that look alike come from different tables or passages of the source.

One data set has as its system A549 adenoma cells. As to the kind of experiment: A549 cells treated with increasing concentrations of DAB. The following applies: Homo sapiens, FIG. 32A. Format: cell-based. From the text: (§1) FIGS. 32A-B show graphs illustrating in vitro and in vivo efficacy of the glycogen phosphorylase inhibitor 1,4-dideoxy-1,4-imino-d-arabinitol (DAB) in non-small cell lung cancer.

In a further data set the test system is A549 xenografts. As to the kind of experiment: A549 xenograft, tumor size. Format: in vivo, athymic nude mice. The following applies: 20 mg/kg daily intraperitoneal vs PBS, 15 weeks. On the procedure: as §1
For in vivo tumor growth, H1299, H2030 and A549 cells were dissociated into single cells, counted and resuspended at 5×10^6 cells per 100 μl of 1:1 media/matrigel (BD). 8-10-week-old female Foxn1^nu/Foxn1^nu(Nude) mice (JAX Laboratories) were injected subcutaneously with 5×10^6 cells on both sides of the flanks. Tumor growth was measured twice a week by caliper in a non-blinded fashion. Tumors were allowed to grow upwards of 1000 mm^3. All mouse experiments were approved by the BCH Animal Care and Use Committee and by the University of Kentucky Institutional Animal Care and Use Committee, both accredited by the Association for Assessment and Accreditation of Laboratory Animal Care and were performed in accordance with relevant institutional and national guidelines and regulations.

For data set [1], the system named is A673 Ewing's sarcoma cells. As to the kind of experiment: Cell viability after guaiacol treatment, A673. In kind it is cell-based. As to conditions: Homo sapiens. On the procedure: (A) A673 Ewing's sarcoma cells were treated with increasing concentrations of guaiacol. […] (E) A673 cells (10^7) were injected subcutaneously in athymic nude mice and when the tumor reached 0.1 cm^3 in size, a daily intraperitoneal injection was initiated of either PBS or guaiacol (20 mg/kg) and tumor size was measured over 15 weeks.
Glycogen metabolism has not been evaluated as an anti-cancer target in ES. Guaiacol is a naturally occurring compound that is a GYS inhibitor. […] Cell viability after treatment of guaiacol was assessed at various concentrations for 48 hrs in three different ES cell lines (TC32, A673 and HS822T).

For another data set, the system named is TC32. Put plainly: Cell viability after guaiacol treatment, TC32. The following applies: Homo sapiens, TC-32; TC32, 48 hrs; read-out: IC50 (50% cell viability). Format: cell-based. Here is the method:
(§2) Guaiacol as a therapeutic agent to target ES in vitro and in vivo. Glycogen metabolism has not been evaluated as an anti-cancer target in ES. Guaiacol is a naturally occurring compound that is a GYS inhibitor. […] Cell viability after treatment of guaiacol was assessed at various concentrations for 48 hrs in three different ES cell lines (TC32, A673 and HS822T). Guaiacol IC50 (50% cell viability) for all three cell lines is ˜20 μM which corresponds to a 3-fold reduction in total glycogen (A673 is shown in FIGS. 31A-C).

Another data set relates to HS822T. Put plainly: Cell viability after guaiacol treatment, HS822T. Format: cell-based. The following applies: 48 hrs, read-out: IC50 (50% cell viability). On the procedure: as §2
For the next data set, the system named is A673. Put plainly: Total glycogen in guaiacol treated ES cell lines. In kind it is cell-based. The following applies: at ~20 μM (IC50), A673 shown. On the procedure: Cells were washed twice in PBS and then lysed in 20 mM NaAcetate pH 5.3, 150 mM NaCl, 10% (v/v) glycerol, 1% (v/v) NP-40. Lysates were centrifuged at 10,000×g at 4° C. for ten minutes. Cleared lysates or purified glycogen were dissolved in ddH2O, followed by acid hydrolysis with 2N HCL for 3 h at 98° C. The reaction was quenched with 2N NaOH for subsequent experiments. Glycogen-derived glucose molecules were measured by either biochemical assay or gas chromatography-mass spectrometry (GC-MS). For the biochemical assay, a portion of the digested lysate was incubated for half an hour at room temperature with 100 U L^−1 of both hexokinase and glucose-6-phosphate dehydrogenase (Sigma) in 50 mM Tris-HCl pH 7.5, 5 mM MgCl2, 0.5 mM ATP, 0.5 mM NAD^+. The absorbance was measured at 340 nm using glucose standards to determine glycogen concentration in lysates; undigested lysates were used for background subtraction. […]
Guaiacol as a therapeutic agent to target ES in vitro and in vivo. Glycogen metabolism has not been evaluated as an anti-cancer target in ES. […] Cell viability after treatment of guaiacol was assessed at various concentrations for 48 hrs in three different ES cell lines (TC32, A673 and HS822T). […]

The test system of another data set is A673 xenograft tumors. As to the kind of experiment: Normalized glycogen levels in treated xenograft tumors. As to conditions: FIG. 31C. Format: in vivo, athymic nude mice. Here is the method:
(§3) FIGS. 31A-E show graphs illustrating in vitro and in vivo efficacy of the glycogen synthase inhibitor guaiacol as an anti-ES agent. (A) A673 Ewing's sarcoma cells were treated with increasing concentrations of guaiacol. (B) The IC50 for guaiacol is ˜20 μm in A673 cells. […] (E) A673 cells (10^7) were injected subcutaneously in athymic nude mice and when the tumor reached 0.1 cm^3 in size, a daily intraperitoneal injection was initiated of either PBS or guaiacol (20 mg/kg) and tumor size was measured over 15 weeks.
(§4) The efficacy of guaiacol was further tested in the xenograft model of ES. A673 cells (10^6) were injected subcutaneously in athymic nude mice and when the tumor reached 0.1 cm^3 in size daily IP injection of either PBS or guaiacol (20 mg/kg) was initiated and tumor size was measured over 15 weeks.

Data set [2] deals with AMPK. Put plainly: Metformin induced AMPK activation (p-ACC) in guaiacol treated cells. As to conditions: guaiacol treated cells plus metformin. In kind it is cell-based.
In the next data set the test system is A673 xenograft. Put plainly: A673 xenograft model of ES, tumor size. The following applies: 20 mg/kg daily intraperitoneal vs PBS, 15 weeks. In kind it is in vivo, athymic nude mice. On the procedure: as §3, §4
The nature of data set [3]: Tolerability in xenograft mice (body weight, motor and behavior testing). In kind it is in vivo. The following applies: 20 mg/kg daily IP, athymic nude mice. On the procedure:
as §4

The conditions of data set [4]: general statement; cited from earlier work.
The conditions of data set [5]: general statement; cited from earlier work. The source holds these as a separate data set.
The test system of a further data set is HEK293 cells. Put plainly: GP localization by immunofluorescence after leptomycin. Format: cell-based. The following applies: leptomycin B for 3 hours. From the text: FIGS. 11A-E show images illustrating that malin ubiquitination of GPBB drives nuclear localization. (A) Immunoblotting analysis of HSP70, laforin, glycogen debranching enzyme (GDE), branching enzyme (BE), and glycogen phosphorylase (GP) with anti-tubulin (Tub) as the loading control in empty vector (EV) or malin-overexpressing (malin-OE) HEK293 cells. (B) Localization of exogenously expressed malin and GP in HEK293 cells assessed by immunofluorescence. (C) In vitro ubiquitination assay using recombinant E1, E2 (UbcH5a), malin, and myc-GP followed by immunoprecipitation with anti-myc, SDS-PAGE, and immunoblotting analysis with an antibody detecting ubiquitin. (D) Effect of inhibition of nuclear […] with leptomycin on GP localization. HEK293 cells were transfected with GFP-MEK or empty vector for the analysis of endogenous GP. Twenty-four hours post-transfection, cells were exposed to leptomycin B for 3 hours, and protein localization was assessed by immunofluorescence. (E) Schematic model for GP nuclear translocation after malin-mediated ubiquitination. All data are representative of three experiments.
Since GPBB is a novel malin-interacting protein, malin-dependent regulation of its localization was of interest. GPBB is largely localized to the cytoplasm (FIG. 11B). […]

Data set [6] concerns AMPK. Put plainly: p-AMPK and p-ACC after metformin treatment of ES cells. In kind it is cell-based. Here is the method:
Whole-cell extracts were generated in RIPA buffer (0.5% deoxycholate, 1% IGEPAL-CA630, 0.1% sodium dodecyl sulfate, 150 mM NaCl, 50 mM Tris-8.1), lysates were cleared by centrifugation and protein concentrations were quantified with the Pierce BCA Protein Assay Kit (Thermo). For western blotting, 25 μg of protein extract per sample was denatured with heat and reducing agents, separated on a 4-12% acrylamide gel (BioRad) and transferred to PVDF (BioRad). Antibodies used for western blotting were: malin (Abcam, 1:1,000), acetyl-H3 (EMDmillipore, 1:1,000), pan-methylation (AbCAM, 1:1,000), myc (Abcam, 1:500), branching enzyme (Lsbio, 1:500), glycogen debranching enzyme (LSBio, 1:1,000), glycogen phosphorylase liver isoform (Cell Signaling Technology 46955 1:2,000), glycogen phosphorylase brain isoform (LSBio, 1:1,000), GAPDH (Abcam 1:1,0000), Histone H3 (Abcam ab1791, 1:20,000), H3K27Ae (Abcam, 1:500), Flag-M2-HRP (Sigma, 1:5000), HSP70 (Abcam, 1:5000) and H3K27me3 (Millipore 07-449; 1:4,000). Each primary antibody was incubated overnight at 4° C. Tubulin (Abcam, 1:20,000) was used as a loading control. All antibodies have detailed species validation available online from vendors. The secondary antibody anti-rabbit IgG, HRP-linked Antibody (Cell Signaling 7074, 1:5,000) or anti-mouse IgG, HRP-linked antibody (Cell Signaling 7076, 1:5,000) was incubated for 1 h at room temperature. After washing, chemiluminescence images were acquired using the ChemiDocMP (BioRad).
Malin-overexpression cells are more sensitive to the AMPK-activator metformin. Since aberrant ES-glycogen binds to AMPK with high affinity and is inhibitory over p-AMPK activity, malin-OE cells that normalize glycogen architecture should be more sensitive to AMPK activators. Both A673-EV and A673-malin-OE cells were treated with 2 mM metformin and both p-AMPK and p-ACC were assessed.

Setting [7] is: 2 mM metformin, A673-EV and A673-malin-OE cells.

Take `OC[C@H]1NC[C@@H](O)[C@@H]1O` [DAB, 1,4-dideoxy-1,4-imino-D-Arabinitol]: the IC50 with A549 adenoma cells was around 1.5 µM. In addition, in the data set with A549 xenografts, the “tumor size / xenograft growth” value was “failed to continue to proliferate over the course of 15 weeks; also recorded: significantly decreased tumor size as compared to PBS”.
In the case of `COc1ccccc1O` [guaiacol, 2-methoxyphenol], the IC50 in [1] (A673, 48 hrs, read-out: IC50 (50% cell viability)) was around 20 µM; in data set [1] (A673 cells, FIG. 31B, read-out: IC50), around 20 µM; in the data set on TC32, around 20 µM; in the data set on HS822T it was around 20 µM. Further, in the data set on A673, the “reduction in total glycogen” value is 3 fold. Also, the “reduction in normalized glycogen levels” value in the data set on A673 xenograft tumors is 3 fold. Besides, the “sensitivity to metformin induced AMPK activation (p-ACC)” value with AMPK [2] is on record as “more sensitive to metformin induced AMPK activation, showing more prominent increase in p-ACC”. The “reduction in tumor volume at the experiment endpoint” value in the data set with A673 xenograft came to 4 fold. Further, the “tolerability / adverse side effects” value in data set [3] is on record as “well tolerated in athymic nude mice without any adverse side effects”. In [4], the toxicity in vivo entry is given as “minimal toxicity in vivo”. In addition, the bioavailability result in [5] was “high bioavailability”.
In the case of `CCC(=C/[C@H](C)C/C=C/C(C)=C/[C@@H](C)C(=O)[C@@H](C)[C@H](O)[C@@H](C)C/C(C)=C/C(=O)O)/C=C/[C@@H]1OC(=O)C=C[C@@H]1C` [leptomycin], the “localization of endogenous GP” value in the data set on HEK293 cells is given as “accumulation of endogenous GP in the nucleus”.
Consider `CN(C)C(=N)N=C(N)N` [metformin], for which, in the data set with AMPK [6] (setting [7]), the p-ACC result is “only the malin-OE cell line showed a significant increase in p-ACC”; the p-AMPK entry was “increased p-AMPK in both EV and malin-OE cell lines”. In addition, the “AMPK activity (p-ACC read out) response to AMPK activator” value with AMPK [6] (ES-cells, FIG. 20) was “insensitive”.
